Measurements taken from patent US9044486B2, “Method for prophylaxis or treatment of feline infectious peritonitis” (Cornell University, priority 2008, dated 2015).
Like-named read-outs stand apart in the source and are kept apart here. Where a SMILES comes first, the peptide text is derived from it. The star is where a group is joined. Cbz = O=C(OCc1ccccc1)*; CHN2 = [N-]=[N+]=C*; tBu = CC(C)(C)*

Legend:
human coronaviruses = settings: cited from earlier work
murine coronavirus (A59) = settings: cited from earlier work
FIPV = settings: cited from earlier work
FIPV-1146 [1] = assay type: cell-based, Feline infectious peritonitis virus; settings: for infection by FIPV-1146 (entry), inhibitor pre-incubation: five log dilutions of inhibitor 60 min pre-infection
FECV-1683 [2] = experiment: Infection (entry) assay by immunofluorescence, A-72 cells; assay type: cell-based, feline enteric coronavirus; settings: for infection by FECV-1683 (entry), inhibitor pre-incubation: five log dilutions of inhibitor 60 min pre-infection; for infection by FECV-1683 (entry), inhibitor pre-incubation / infection by FECV-1683, inhibitor treatment after entry: fixed 6 h post-infection; for infection by FECV-1683, inhibitor treatment after entry: inhibitor 60 min post-infection
influenza virus [3] = assay type: cell-based; settings: for influenza virus entry, cathepsin inhibitor treatment: anti-influenza nucleoprotein mAb H19
Sendai virus = assay type: cell-based
FIPV-1146 [4] = experiment: Infection of feline cell lines CRFK, AK-D, Fc2Lu by immunofluorescence; assay type: cell-based, Feline infectious peritonitis virus
FECV-1683 [5] = experiment: as above; assay type: cell-based, feline enteric coronavirus; settings: Fc2Lu cells, pretreated with 10 uM inhibitor or 10 mM NH4Cl, 6 h post-infection
FIPV-DF2 [6] = experiment: as above; assay type: cell-based, Feline infectious peritonitis virus
FIPV-1146 [7] = experiment: Growth assay: production of extracellular virus by TCID50, A-72 cells; assay type: cell-based, Feline infectious peritonitis virus; settings: A-72 cells pretreated with 10 μM inhibitor; media collected 9 h post-infection; vs DMSO control
FECV-1683 [8] = experiment: as above; assay type: cell-based, feline enteric coronavirus; settings: A-72 cells pretreated with 10 μM inhibitor; media collected 9 h post-infection; vs DMSO control
FIPV-1146 [9] = experiment: Infection of primary feline blood monocytes by immunofluorescence; assay type: cell-based, Feline infectious peritonitis virus; settings: monocytes pretreated with 10 μM inhibitor; 12 h post-infection
FIPV-DF2 [10] = experiment: as above; assay type: cell-based, Feline infectious peritonitis virus; settings: monocytes pretreated with 10 μM inhibitor; 12 h post-infection
[11] = test system: serotype I FIPV black strain; experiment: Infection of AK-D cells by a serotype I FCoV, immunofluorescence; assay type: cell-based, Feline infectious peritonitis virus; settings: AK-D cells pretreated with 10 uM inhibitor
Description: AK-D cells were pretreated with either 10 uM cathepsin B inhibitor CA074-Me (CatB-I), 10 uM cathepsin L inhibitor Z-FY(tBu)-DMK (CatL-I), or 10 mM NH4Cl, and then infected with virus the serotype I FIPV black strain. Immunofluorescence was performed essentially as described for FIG. 4.
AK-D cells were pretreated with either 10 uM cathepsin B inhibitor CA074-Me (CatB-I), 10 uM cathepsin L inhibitor Z-FY(tBu)-DMK (CatL-I), or 10 mM NH4Cl, and then infected with virus FIPV black strain, a serotype I FIPV. Immunofluorescence was performed essentially as described for FIG. 4.

cathepsin B [12] = target: cathepsin B (Homo sapiens, UniProt P07858); settings: kinact/Ki (k2/Ki); cited from earlier work
cathepsin L = cathepsin L (Homo sapiens, UniProt P07711); settings: kinact/Ki (k2/Ki); cited from earlier work
cathepsin B [13] = target: T1, cathepsin B (Mus musculus, UniProt P10605); settings: 10 mg/kg; cited from earlier work
T1 construct: host or cells: mouse (in vivo)

influenza virus [14] = assay type: cell-based; settings: A-72 cells pretreated with inhibitor; control virus
[15] = A-72 cells, fixed 6 h post-infection
[16] = CRFK, AK-D, Fc2Lu cells, pretreated with 10 uM inhibitor or 10 mM NH4Cl, 6 h post-infection
[17] = A-72 cells, 1 h post-infection, concentrations shown in FIG. 3
[18] = A-72 cells, pretreatment with 50 nM bafilomycin A1
[19] = A-72 cells, post-treatment at the concentrations shown in FIG. 3

Sequence of cathepsin L (P07711 114-333, species assumed): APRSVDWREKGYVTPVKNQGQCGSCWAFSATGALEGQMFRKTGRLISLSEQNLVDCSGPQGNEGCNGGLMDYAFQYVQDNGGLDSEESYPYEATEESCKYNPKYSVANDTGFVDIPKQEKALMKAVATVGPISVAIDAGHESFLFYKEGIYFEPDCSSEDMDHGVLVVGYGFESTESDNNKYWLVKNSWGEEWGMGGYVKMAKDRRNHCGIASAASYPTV
T1 sequence (P10605 80-333): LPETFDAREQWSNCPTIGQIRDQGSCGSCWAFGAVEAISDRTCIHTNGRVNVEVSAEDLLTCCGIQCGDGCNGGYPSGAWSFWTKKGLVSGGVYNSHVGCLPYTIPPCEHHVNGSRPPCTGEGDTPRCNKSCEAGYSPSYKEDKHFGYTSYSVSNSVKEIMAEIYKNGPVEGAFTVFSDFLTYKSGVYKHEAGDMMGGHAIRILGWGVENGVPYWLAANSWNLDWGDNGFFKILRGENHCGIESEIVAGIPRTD

## CC(=O)N[C@@H](CC(C)C)C(=O)N[C@@H](CC(C)C)C(=O)N[C@H](C=O)CCCNC(=N)N [leupeptin]
Human coronaviruses
  replication of human coronavirus: inhibits
Murine coronavirus (A59)
  replication of murine coronavirus A59: does not strongly inhibit
FIPV
  inhibition of FIPV: does not strongly inhibit

## Cl.N [NH4Cl]
FIPV-1146 [1]
  FIPV-1146 entry: only partially blocked
  FIPV-1146 infection, lysosomotropic agent treatment after entry: minimal effect
  FIPV-1146 infectivity, treatment after entry at higher concentrations: significantly reduce infectivity
  inhibition of entry of FIPV-1146: approximately 20%
FECV-1683 [2]
  FECV-1683 infection, lysosomotropic agent treatment after entry: minimal effect
  FECV-1683 infectivity, treatment after entry at higher concentrations: significantly reduce infectivity
  entry by FECV-1683: almost completely blocked entry
Influenza virus [3]
  influenza virus entry: completely inhibited
Sendai virus
  Sendai virus entry: no reduction in entry
FIPV-1146 [4]
  infection by FIPV-1146 of feline cell lines: only a marginal effect
FECV-1683 [5]
  infection by FECV-1683 of feline cell lines: selectively inhibited
FIPV-DF2 [6]
  infection by FIPV-DF2 of feline cell lines: only a marginal effect

## CCCNC(=O)[C@H]1O[C@@H]1C(=O)N[C@H](C(=O)N1CCC[C@H]1C(=O)OC)[C@@H](C)CC (relative stereo) [CA074-Me, [L-3-trans-(Propylcarbamoyl)oxirane-2-carbonyl]-L-isoleucyl-L-proline Methyl Ester]
FIPV-1146 [7]
  production of FIPV-1146 viral particles (extracellular virus, TCID50): considerably limited the production
FECV-1683 [8]
  production of FECV-1683 viral particles (extracellular virus, TCID50): considerably limited the production
FIPV-1146 [1]; [15]
  infection by FIPV-1146 (entry), inhibitor pre-incubation: almost completely blocked infection
FIPV-1146 [1]; A-72 cells, inhibitor 60 min post-infection, fixed 6 h post-infection
  infection by FIPV-1146, inhibitor treatment after entry: no effect
FECV-1683 [2]; A-72 cells
  infection by FECV-1683 (entry), inhibitor pre-incubation: potently blocked infection
  infection by FECV-1683, inhibitor treatment after entry: no effect
Influenza virus [3]; A-72 cells, […]
  influenza virus entry, cathepsin inhibitor treatment: Neither the cathepsin B nor the cathepsin L inhibitor had an effect
FIPV-1146 [4]; [16]
  infection by FIPV-1146 of feline cell lines: almost completely prevented infection
FECV-1683 [5]
  infection by FECV-1683 of feline cell lines: almost completely prevented infection
FIPV-DF2 [6]; [16]
  infection by FIPV-DF2 of feline cell lines: almost completely prevented infection
FIPV-1146 [9]
  inhibition of infection by FIPV-1146 of primary feline blood monocytes: 85-95%
FIPV-DF2 [10]
  inhibition of infection by FIPV-DF2 of primary feline blood monocytes: 85-95%
[11]
  replication of the serotype I FIPV strain: can inhibit replication
Cathepsin B [12]
  apparent second order rate constant for cathepsin B: 201 M⁻¹ s⁻¹
Cathepsin L
  apparent second order rate constant for cathepsin L: 85 M⁻¹ s⁻¹
Cathepsin B [13]
  inhibition of cathepsin B in a mouse: inhibit cathepsin B

## CC(C)C[C@H](NC(=O)OCc1ccccc1)C(=O)NNC(=O)NNC(=O)[C@H](CC(C)C)NC(=O)[C@H](Cc1ccccc1)NC(=O)OC(C)(C)C [Boc1, 1-(N-Benzyloxycarbonyl-leucyl)-5-(N-Boc-phenylalanyl-leucyl)carbohydrazide]
FIPV-1146 [7]
  production of FIPV-1146 viral particles (extracellular virus, TCID50): no significant effect
FECV-1683 [8]
  production of FECV-1683 viral particles (extracellular virus, TCID50): no significant effect
FIPV-1146 [1]; [15]
  infection by FIPV-1146 (entry), inhibitor pre-incubation: no effect
FECV-1683 [2]; A-72 cells
  infection by FECV-1683 (entry), inhibitor pre-incubation: no effect
Influenza virus [3]; [15]
  influenza virus entry, cathepsin inhibitor treatment: no effect

## CCOC(=O)[C@H]1O[C@@H]1C(=O)N[C@@H](CC(C)C)C(=O)NCCC(C)C [E-64d, (2S,3S)-trans-Epoxysuccinyl-L-leucylamido-3-methylbutane ethyl ester]
FIPV-1146 [7]
  production of FIPV-1146 viral particles (extracellular virus, TCID50): significantly reduced
FECV-1683 [8]
  production of FECV-1683 viral particles (extracellular virus, TCID50): significantly reduced
Influenza virus [14]
  effect on influenza virus infection: no effect

## CC(C)(C)Oc1ccc(C[C@H](NC(=O)[C@H](Cc2ccccc2)NC(=O)OCc2ccccc2)C(=O)C=[N+]=[N-])cc1 [Z-FY-(tBu)-DMK, Z-Phe-Tyr(t-Bu)-diazomethylketone] (Cbz-Phe-Tyr(tBu)-CHN2)
FIPV-1146 [7]
  production of FIPV-1146 viral particles (extracellular virus, TCID50): only a negligible effect
FECV-1683 [8]
  production of FECV-1683 viral particles (extracellular virus, TCID50): greatly diminished the propagation
FIPV-1146 [1]; [15]
  infection by FIPV-1146 (entry), inhibitor pre-incubation: no effect on FIPV-1146 entry, except for some limited effect at the highest concentration tested
FECV-1683 [2]; A-72 cells
  infection by FECV-1683 (entry), inhibitor pre-incubation: potently blocked infection
  infection by FECV-1683, inhibitor treatment after entry: no effect
Influenza virus [3]; A-72 cells, […]
  influenza virus entry, cathepsin inhibitor treatment: Neither the cathepsin B nor the cathepsin L inhibitor had an effect
FIPV-1146 [4]; [16]
  infection by FIPV-1146 of feline cell lines: little or no effect
FECV-1683 [5]
  infection by FECV-1683 of feline cell lines: selectively inhibited
FIPV-DF2 [6]; [16]
  infection by FIPV-DF2 of feline cell lines: little or no effect
FIPV-1146 [9]
  effect on FIPV-1146 infection of primary feline monocytes (in words): no significant effect
FIPV-DF2 [10]
  effect on FIPV-DF2 infection of primary feline monocytes (in words): no significant effect

## CO/C1=C\C(C)=C\[C@@H](C)[C@@H](O)[C@@H](C)C/C(C)=C/C=C/[C@H](OC)[C@@H]([C@@H](C)[C@@H](O)[C@H](C)[C@@]2(O)C[C@@H](O)[C@H](C)[C@@H](C(C)C)O2)OC1=O [bafilomycin A1]
FIPV-1146 [1]
  FIPV-1146 infectivity, treatment after entry at higher concentrations: significantly reduce infectivity
FIPV-1146 [1]; [17]
  FIPV-1146 infection, lysosomotropic agent treatment after entry: minimal effect
FIPV-1146 [1]; [18]
  inhibition of entry by FIPV-1146: approximately 40%
FECV-1683 [2]
  FECV-1683 infectivity, treatment after entry at higher concentrations: significantly reduce infectivity
FECV-1683 [2]; [17]
  FECV-1683 infection, lysosomotropic agent treatment after entry: minimal effect
FECV-1683 [2]; [18]
  entry of FECV-1683: completely blocked entry
Influenza virus [3]; [19]
  influenza virus infection, post-treatment: no effect
Influenza virus [3]; [18]
  entry of influenza virus: completely blocked entry
Sendai virus; A-72 cells, bafilomycin A1 at the concentrations tested
  Sendai virus entry: unaffected
Sendai virus; [19]
  Sendai virus infection, post-treatment: no effect

B1: cystatin C: a potent inhibitor of cathepsin B (protein, UniProt P01034 27-146, looked up)
Cystatin-C: SSPGKPPRLVGGPMDASVEEEGVRRALDFAVGEYNKASNDMYHSRALQVVRARKQIVAGVNYFLDVELGRTTCTKTQPNLDNCPFHDQPHLKRKAFCSFQIYAVPWQGTMTLSKSTCQDA
Human coronaviruses
  replication of human coronavirus: inhibited replication
Murine coronavirus (A59)
  replication of murine coronavirus A59: lack of inhibition
